What was measured:
[1] = Inhibition of autophagy in human A375P cells assessed as fold change in p-H2AX at 3 uM incubated for 24 hrs by immunoblot analysis relative to control; format: functional
[2] = Inhibition of autophagy in human A375P cells assessed as fold change in BNIP3 at 3 uM incubated for 24 hrs by immunoblot analysis relative to control; format: functional
[3] = Inhibition of autophagy in human A375P cells assessed as fold change in LC3BII/ LC3BI ratio at 3 uM incubated for 24 hrs by immunoblot analysis relative to control; format: functional
[4] = Inhibition of autophagy in human A375P cells assessed as fold change in p62 at 3 uM incubated for 24 hrs by immunoblot analysis relative to control; format: functional
[5] = Cytotoxicity against human A375P cells incubated for 72 hrs by MTT assay; format: functional, cell-based
[6] = Inhibition of autophagy in human A375P cells assessed as fold change in BNIP3 at 10 uM incubated for 24 hrs by immunoblot analysis relative to control; format: functional
[7] = Inhibition of autophagy in human A375P cells assessed as fold change in LC3BII/ LC3BI ratio at 10 uM incubated for 24 hrs by immunoblot analysis relative to control; format: functional
[8] = Inhibition of autophagy in human A375P cells assessed as fold change in p62 at 10 uM incubated for 24 hrs by immunoblot analysis relative to control; format: functional
[9] = Inhibition of autophagy in human A375P cells assessed as fold change in H2AX at 10 uM incubated for 24 hrs by immunoblot analysis relative to control; format: functional

Structure (SMILES)	fold change (FC) [1]	fold change (FC) [2]	fold change (FC) [3]	fold change (FC) [4]	IC50 [5]	fold change (FC) [6]	fold change (FC) [7]	fold change (FC) [8]	fold change (FC) [9]
Clc1ccc2c(NCCCCCCNCCCCCCNc3ccnc4cc(Cl)ccc34)ccnc2c1	20.8	1.3	15.2	1.1	–	–	–	–	–
NCCN(CCNc1ccnc2cc(Cl)ccc12)CCNc1ccnc2cc(Cl)ccc12	–	–	–	–	12300 nM	0.7	1	0.5	1.4
CCOCCOCCN(CCCCCCNc1ccnc2cc(Cl)ccc12)CCCCCCNc1ccnc2cc(Cl)ccc12	–	5.1	28	2.7	650 nM	–	–	–	–
CCCCCCCCN(CCCCCCNc1ccnc2cc(Cl)ccc12)CCCCCCNc1ccnc2cc(Cl)ccc12	–	0.7	27	1.6	420 nM	–	–	–	–
CN(C)CCN(CCNc1ccnc2cc(Cl)ccc12)CCNc1ccnc2cc(Cl)ccc12	–	–	–	–	4600 nM	1.7	4.8	0.8	3
CNCCN(CCNc1ccnc2cc(Cl)ccc12)CCNc1ccnc2cc(Cl)ccc12	–	–	–	–	13000 nM	0.4	0.8	0.6	1.4
CCCCCCCCN(CCNc1ccnc2cc(Cl)ccc12)CCNc1ccnc2cc(Cl)ccc12	–	5.9	26	4	1280 nM	–	–	–	–
CCOCCOCCN(CCNc1ccnc2cc(Cl)ccc12)CCNc1ccnc2cc(Cl)ccc12	–	–	–	–	5990 nM	–	–	–	–
CN(CCCCCCNc1ccnc2cc(Cl)ccc12)CCCCCCNc1ccnc2cc(Cl)ccc12	4.7	3.2	24	1.8	490 nM	–	–	–	–

From ChEMBL document CHEMBL4823297, “Anticancer properties of bisaminoquinolines with modified linkers” (Bioorg Med Chem Lett, 2021)
